# Test results published in US10451610B2, “Prediction of response to PARP inhibitors and combinational therapy targeting C-MET and PARP1” (Board of Regents, The University of Texas System, priority 2014, dated 2019).
# Columns and labels:
# MDA-MB-231 cells = assay: Cell viability assay; type: cell-based, human; conditions: for sensitivity to PARP inhibitor, clonogenic cell survival and cell viability: c-Met knockdown vs control, cells expressing wild-type PARP1, FIGS. 3H, 13D-E; for sensitivity of cells to PARP inhibitors: MDA-MB-231, c-Met inhibitor with ABT-888 (cell viability) or AG014699 (clonogenic), FIGS. 2D-E, 8D
# Procedure: Cells (1,500) were seeded in a 96-well plate and treated with the indicated inhibitors for 72 h. Then cells were incubated in fresh media with 100 μM resazurin for 1 h. Cell viability was measured by fluorescent plate readers at spectra of 560EX nm/590EM nm. Survival curves were expressed as mean±s.d. relative to DMSO-treated control from three independent experiments.
# Cell growth was measured by cell viability, clonogenic cell survival, or soft agar anchorage-independent cell growth assay.
# [1] = system: PARP1 Y907 phosphorylation; assay: PARP1-pY907 staining of MDA-MB-231 xenograft tumor tissues; type: in vivo, nude mice; conditions: tissues harvested within 24 h after last treatment; FIG. 4O
# Procedure: All animal procedures were conducted under the approval of the Institutional Animal Care and Use Committee (IACUC) at MD Anderson Cancer Center (protocol number 10-14-07231). Female nude mice at 6-8 weeks of age were injected in their mammary fat pads with 0.5×10^6 MDA-MB-231 cells, 2×10^6 HCC1937 cells or 5×10^6 MCF-7 cells. Female FBV at 6-8 weeks of age were injected in their mammary fat pads with 0.5×10^6 A1034 cells. H1993 cells were injected subcutaneously into the right flank of female nude mice at 6-8 weeks of age. For MDA-MB-231 and A1034 cells xenograft mouse models, mice were imaged with the IVIS Imaging System 5 days after injection and were divided into treatment groups (n=10). […] After 2 weeks of treatment, tumor sizes were assessed using with the IVIS Imaging System. Mice were injected with 100 μl of D-luciferin (Xenogen; 15 mg/ml in PBS). After 10 min, mice were anesthetized with a mixture of oxygen and isoflurane (Inhalation Anesthesia System; Matrix Medical, Orchard Park, N.Y.) and underwent imaging with the IVIS Imaging System. Imaging parameters were maintained across experiments for comparative analyses. Tumor samples were collected after final treatment and analyzed by immunofluorescence staining. For toxicity assessment, mice were weighed before and after treatment. Blood samples were collected after treatment. […]
# [2] = system: phosphorylation of PARP1 at Y907; assay: Western blot of H2O2-induced PARP1 pY907 in MDA-MB-231 cells; type: cell-based, human; conditions: pre-treatment before H2O2; FIG. 3G
# Procedure: For immunoprecipitation (IP), lysates of cells treated as described in the text were precleared with 1 μg of mouse or rabbit IgG and 20 μl of protein G-agarose (Roche, Indianapolis, Ind.) for 1 h at 4° C. Pre-cleared lysates were incubated with 1 μg of primary antibodies or anti-IgG antibody at 4° C. overnight with gentle agitation. Lysates were further incubated with protein G-agarose for 30 min at 4° C. Protein G-agarose pellets were collected and washed three times at 4° C. The immunoprecipitants were subjected to sodium dodecyl sulfate-polyacrylamide gel electrophoresis (SDS-PAGE) and western blot analysis as described previously (Du et al., 2014).
# [3] = system: γH2AX foci formation in MDA-MB-231 cells; assay: γH2AX foci formation by immunofluorescence confocal microscopy; type: cell-based, human; conditions: c-Met inhibitor together with PARP inhibitor ABT-888; FIG. 3A
# Procedure: Briefly, cells grown on chamber slides (Labtek, Scotts Valley, Calif.) were treated as described in the text. After washing with ice-cold PBS, cells were fixed, permeabilized, and incubated with primary antibodies and fluorescence-labeled secondary antibodies. Immunostained cells were examined using a Zeiss LSM 710 laser-scanning microscope (Carl Zeiss, Thornwood, N.Y.) with a 63×/1.4 objective. The ZEN and AxioVison (Carl Zeiss) and Image J software programs (National Institutes of Health, Bethesda, Md.) were used for data analysis. The mean±s.d. of fluorescence intensity of the indicated antibodies from five images in each treatment group was calculated.
# patients with TNBC [4] = conditions: phase 3; cited from earlier work
# patients with TNBC [5] = conditions: phase 2, combined with chemotherapy; cited from earlier work
# [6] = system: patients with wild-type BRCA; conditions: cited from earlier work
Structure (SMILES),"sensitivity to PARP inhibitor, clonogenic cell survival and cell viability (MDA-MB-231 cells)",phosphorylation of PARP1 at Y907 induced by H2O2 [2],sensitivity of cells to PARP inhibitors (MDA-MB-231 cells),other results
"C[C@]1(c2nc3c(C(N)=O)cccc3[nH]2)CCCN1 [ABT-888, Veliparib]",more sensitive,,,
"CNCc1ccc(-c2[nH]c3cc(F)cc4c3c2CCNC4=O)cc1 [AG014699, Rucaparib]",more sensitive,,,
C[C@@H](Oc1cc(-c2cnn(C3CCNCC3)c2)cnc1N)c1c(Cl)ccc(F)c1Cl [crizotinib],,abolished phosphorylation of PARP1 at Y907,enhanced the sensitivity of cells to PARP inhibitors,PARP1 Y907 phosphorylation in tumor tissue [1]: inhibited; γH2AX foci formation (marker of DNA damage) [3]: enhanced γH2AX foci formation
COc1cc2c(Oc3ccc(NC(=O)C4(C(=O)Nc5ccc(F)cc5)CC4)cc3F)ccnc2cc1OCCCN1CCOCC1 [foretinib],,abolished phosphorylation of PARP1 at Y907,enhanced the sensitivity of cells to PARP inhibitors,
NC(=O)c1ccc(I)c([N+](=O)[O-])c1 [iniparib],,,,overall survival or progression free survival benefit (patients with TNBC [4]): did not provide significant overall survival or progression free survival benefit; clinical benefit (patients with TNBC [5]): improved clinical benefits
O=C(c1cc(Cc2n[nH]c(=O)c3ccccc23)ccc1F)N1CCN(C(=O)C2CC2)CC1 [olaparib],,,,clinical response [6]: demonstrated response
